# From patent US7473704B2, “Cyclohexyl prostaglandin analogs as EP4-receptor agonists” (Allergan, Inc., priority 2003, dated 2009)
# Columns and labels:
# [1] = biological target: T1, human EP4 receptor (Homo sapiens, UniProt P35408); experiment: Recombinant human EP4 receptor binding assay (HEK-293-EBNA stable transfectants); conditions: read-out: Binding Data (IC50 in nM) hEP4
# T1 construct: expressed in transfected cells
# Protocol: (§1) Human Recombinant EP4 Receptor: Stable Transfectants.
# (§2) Plasmids encoding the human EP4 receptor were prepared by cloning the respective coding sequences into the eukaryotic expression vector pCEP4 (Invitrogen). The pCEP4 vector contains an Epstein Barr virus (EBV) origin of replication, which permits episomal replication in primate cell lines expressing EBV nuclear antigen (EBNA-1). It also contains a hygromycin resistance gene that is used for eukaryotic selection. The cells employed for stable transfection were human embryonic kidney cells (HEK-293) that were transfected with and express the EBNA-1 protein. These HEK-293-EBNA cells (Invitrogen) were grown in medium containing Geneticin (G418) to maintain expression of the EBNA-1 protein. HEK-293 cells were grown in DMEM with 10% fetal bovine serum (FBS), 250 μg ml^−1 G418 (Life Technologies) and 200 μg ml^−1 gentamicin or penicillin/streptomycin.
# (§3) For transfection, the cells were grown to 50-60% confluency on 10 cm plates. The plasmid pCEP4 incorporating cDNA inserts for the respective human prostanoid receptor (20 μg) was added to 500 μl of 250 mM CaCl2. HEPES buffered saline×2 (2×HBS, 280 mM NaCl, 20 mM HEPES acid, 1.5 mM Na2 HPO4, pH 7.05-7.12) was then added dropwise to a total of 500 μl, with continuous vortexing at room temperature. After 30 min, 9 ml DMEM were added to the mixture. The DNA/DMEM/calcium phosphate mixture was then added to the cells, which had been previously rinsed with 10 ml PBS. The cells were then incubated for 5 hr at 37° C. in humidified 95% air/5% CO2. The calcium phosphate solution was then removed and the cells were treated with 10% glycerol in DMEM for 2 min. The glycerol solution was then replaced by DMEM with 10% FBS. The cells were incubated overnight and the medium was replaced by DMEM/10% FBS containing 250 μg ml^−1 G418 and penicillin/streptomycin. The following day hygromycin B was added to a final concentration of 200 μg ml^−1.
# (§4) Ten days after transfection, hygromycin B resistant clones were individually selected and transferred to a separate well on a 24 well plate. At confluence each clone was transferred to one well of a 6 well plate, and then expanded in a 10 cm dish. Cells were maintained under continuous hygromycin selection until use.
# (§5) Certain of the above compounds were tested for activity in the recombinant human EP4 receptor assay described above and the results are reported in Table 1, below.
# [2] = biological target: T1, human EP4 receptor; experiment: Recombinant human EP4 receptor functional assay (HEK-293-EBNA stable transfectants); assay type: cell-based; conditions: read-out: Functional Data (EC50 in nM) hEP4
# Protocol: as §1, §2, §3, §4, §5
# T1 sequence (P35408 whole entry): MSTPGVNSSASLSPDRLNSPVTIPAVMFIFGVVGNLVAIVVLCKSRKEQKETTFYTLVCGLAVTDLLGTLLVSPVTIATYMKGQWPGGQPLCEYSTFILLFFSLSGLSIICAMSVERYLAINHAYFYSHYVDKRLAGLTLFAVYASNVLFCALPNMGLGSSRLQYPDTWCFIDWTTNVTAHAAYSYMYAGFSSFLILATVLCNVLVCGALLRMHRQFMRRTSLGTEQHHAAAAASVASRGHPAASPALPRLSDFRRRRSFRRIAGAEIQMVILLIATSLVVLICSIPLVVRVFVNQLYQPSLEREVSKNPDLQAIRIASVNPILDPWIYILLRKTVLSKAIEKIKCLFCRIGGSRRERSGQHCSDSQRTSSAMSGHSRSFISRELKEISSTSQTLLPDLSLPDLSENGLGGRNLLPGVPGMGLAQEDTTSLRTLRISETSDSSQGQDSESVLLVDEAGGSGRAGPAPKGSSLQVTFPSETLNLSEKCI
smiles,measurement,setting,value
O=C(O)CCC/C=C\C[C@H]1C(=O)CC[C@@H](O)[C@@H]1/C=C/C(O)CCc1sc2ccccc2c1Cl (stereo partly drawn) [1 high Rf],IC50,[1],200 nM
same,EC50,[2],136 nM
O=C(O)CCC/C=C\C[C@H]1C(=O)CC[C@@H](O)[C@@H]1/C=C/C(O)CCc1sc2ccccc2c1Cl (stereo partly drawn) [1 low Rf],IC50,[1],400 nM
same,EC50,[2],67 nM
"O=C(O)CCC/C=C\C[C@H]1C(=O)CC[C@@H](O)[C@@H]1/C=C/C(O)Cc1ccccc1 (stereo partly drawn) [Example 2, (Z)-7-[(1R,2R,3R)-3-Hydroxy-2-((E)-3-hydroxy-4-phenyl-but-1-enyl)-6-oxo-cyclohexyl]-hept-5-enoic acid]",IC50,[1],100 nM
same,EC50,[2],11 nM
"O=C(O)CCC/C=C\C[C@H]1C(=O)CC[C@@H](O)[C@@H]1/C=C/C(O)Cc1csc2ccccc12 (stereo partly drawn) [Example 3, (Z)-7-[(1R,2R,3R)-2-((E)-4-Benzo[b]thiophen-3-yl-3-hydroxy-but-1-enyl)-3-hydroxy-6-oxo-cyclohexyl]-hept-5-enoic acid]",IC50,[1],1300 nM
same,EC50,[2],168 nM
"O=C(O)CCCC#CC[C@H]1C(=O)CC[C@@H](O)[C@@H]1/C=C/C(O)CCc1ccccc1 (stereo partly drawn) [Example 4, 7-[(1R,2R,3R)-3-Hydroxy-2-((E)-3-hydroxy-5-phenyl-pent-1-enyl)-6-oxo-cyclohexyl]-hept-5-ynoic acid]",IC50,[1],1000 nM
same,EC50,[2],214 nM
"O=C(O)CCC/C=C\C[C@@H]1[C@@H](/C=C/C(O)CCc2sc3ccccc3c2Cl)[C@H](O)CC[C@H]1Cl (stereo partly drawn) [Example 6, (Z)-7-{(1R,2R,3R,6R)-6-Chloro-2-[(E)-5-(3-chloro-benzo[b]thiophen-2-yl)-3-hydroxy-pent-1-enyl]-3-hydroxy-cyclohexyl)-hept-5-enoic acid]",IC50,[1],35 nM
same,EC50,[2],314 nM
"O=C(O)CCCC#CC[C@H]1C(=O)CC[C@@H](O)[C@@H]1/C=C/C(O)Cc1csc2ccccc12 (stereo partly drawn) [Example 8, 7-[(1R,2R,3R)-2-((E)-4-Benzo[b]thiophen-3-yl-3-hydroxy-but-1-enyl)-3-hydroxy-6-oxo-cyclohexyl]-hept-5-ynoic acid]",IC50,[1],3500 nM
same,EC50,[2],362 nM
"CCCCC[C@H](O)CC[C@H]1[C@H](O)CCC(=O)[C@@H]1CCCCCCC(=O)O [Example 9, 7-[(1R,2R,3R)-3-Hydroxy-2-((S)-3-hydroxy-octyl)-6-oxo-cyclohexyl]-heptanoic acid]",IC50,[1],600 nM
same,EC50,[2],387 nM
"O=C(O)CCC/C=C\C[C@H]1C(=O)C=CC[C@@H]1/C=C/C(O)CCc1sc2ccccc2c1Cl (stereo partly drawn) [Example 10, (Z)-7-{(1R,6R)-6-[(E)-5-(3-Chloro-benzo[b]thiophen-2-yl)-3-hydroxy-pent-1-enyl]-2-oxo-cyclohex-3-enyl}-hept-5-enoic acid]",IC50,[1],1800 nM
same,EC50,[2],456 nM
